Patent publication US20230271932A1, “SMALL MOLECULE COVALENT ACTIVATORS OF UCP1” (Dana-Farber Cancer Institute, Inc., priority 2020, published 2023)

Biological target: T1, UCP1 (Mus musculus, UniProt P12242)
T1 construct: Cellular oxygen consumption and UCP1-rependent respiration of primary brown adipocytes; endogenous in cells; host or cells: primary brown adipocytes differentiated from the interscapular brown adipose stromal vascular fraction of 2- to 6-day-old pups
T1 sequence (P12242 1-307): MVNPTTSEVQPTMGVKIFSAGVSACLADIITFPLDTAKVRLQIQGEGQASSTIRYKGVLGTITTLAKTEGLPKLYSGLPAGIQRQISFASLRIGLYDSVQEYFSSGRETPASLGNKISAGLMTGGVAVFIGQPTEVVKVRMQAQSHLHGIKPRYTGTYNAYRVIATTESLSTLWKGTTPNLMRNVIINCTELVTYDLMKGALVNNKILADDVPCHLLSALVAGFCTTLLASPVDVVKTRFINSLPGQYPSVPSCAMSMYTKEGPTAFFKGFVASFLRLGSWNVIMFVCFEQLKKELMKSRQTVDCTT
Experiment: UCP1-dependent respiration in primary brown adipocytes (Seahorse XF24 oxygen consumption)
Format: cell-based
Conditions: wild-type primary brown adipocytes; MYF compounds at 100 uM
Experimental: Primary brown adipocyte preparation and differentiation. Interscapular brown adipose stromal vascular fraction was obtained from 2- to 6-day-old pups as described in PMID: 30022159. Interscapular brown adipose was dissected, washed in PBS, minced, and digested for 45 min at 37° C. in PBS containing 1.5 mg ml^−1 collagenase B, 123 mM NaCl, 5 mM KCl, 1.3 mM CaCl2, 5 mM glucose, 100 mM HEPES, and 4% essentially fatty-acid-free BSA. Tissue suspension was filtered through a 40 µm cell strainer and centrifuged at 600 g for 5 min to pellet the SVF. The cell pellet was resuspended in adipocyte culture medium and plated. Cells were maintained at 37° C. in 10% CO2. Primary brown pre-adipocytes were counted and plated in the evening, 12 h before differentiation at 15,000 cells per well of a seahorse plate. Pre-adipocyte plating was scaled according to surface area. […]
Direct measure of UCP1-dependent respiration in brown adipocytes. […] Basal respiration was determined to be the oxygen consumption in the presence of substrate (1 mM sodium pyruvate) alone. Following determination of basal respiration, MYF compounds at 100 uM or vehicle was added to the cells and the respiration response measured immediately. […] Maximal respiration capacity was determined following addition of DNP (2 mM). […]

SMILES | UCP-1-dependent respiration
C=CC(=O)Nc1cc(-c2ccncc2)ccc1C(=O)OC [CP-A16, methyl 2-acrylamido-4-(pyridin-4-yl)benzoate] | activation
CCC(=O)Nc1cc(-c2ccnnc2)sc1C(=O)OC [ZNL-06-123] | activation
